# Measurements published in patent publication US20240122938A1, “METHODS AND COMPOSITIONS FOR TREATING UVEAL MELANOMA” (INSERM (INSTITUT NATIONAL DE LA SANTÉ ET DE LA RECHERCHE …, priority 2019, published 2024).
# Experiments:
# [1] = system: 92.1 uveal melanoma cells xenografts; test: Subcutaneous tumor xenograft; assay type: in vivo, athymic nude mice; conditions: 92.1 xenografts
# Procedure: FIG. 3. ABT-263 reduces tumor growth in vivo. (A) Primary 92.1 uveal melanoma cells were subcutaneously engrafted into athymic nude mice. Once the tumours reached 100 mm3, mice were treated daily with ABT-263. The arrow indicates the start of the treatment. The growth tumor curves were determined by measuring the tumor volume using the equation V=(L Å˜W2)/2. […] (B) Sub-cutaneous tumor weight from control (Ct) and ABT-263-treated mice is shown. (C) Blood biochemical analysis of mice xenografted with OMM1 cells. Serum activity of alanine transaminase (ALT) and aspartate transaminase (AST) was measured in control and ABT-263 by spectrophotometric methods after the end of treatment. Data are presented as mean±SD (n=5 per group). Animal experiments were performed in accordance with French law and approved by a local institutional ethical committee. The animals were maintained in a temperature-controlled facility (22° C.) on a 12-h light/dark cycle and provided free access to food (standard laboratory chow diet from UAR, Epinay-S/Orge, France). Human Mel270 uvealmelanoma cells were subcutaneously inoculated into 8-week-old female, immune-deficient, athymic, nude FOXN1nu mice (Harlan Laboratory). […] The growth tumor curves were determined after measuring the tumor volume using the equation V=(L×W2)/2. […]
# [2] = system: XBP1 splicing; test: XBP1 splicing (QRT-PCR); assay type: cell-based, human; conditions: both primary cells and metastatic OMM1 cells
# Procedure: The mRNA was isolated using TRIzol (Invitrogen) according to a standard procedure. QRT-PCR was performed using SYBR® Green I (Eurogentec, Seraing, Belgium) and Multiscribe Reverse Transcriptase (Applied Biosystems) and subsequently monitored using the ABI Prism 7900 Sequence Detection System (Applied Biosystems, Foster City, CA). The detection of the SB34 gene was used to normalize the results. Spliced Xbp1 primers were previously reported27. Primer sequences for each cDNA were designed using either Primer Express Software (Applied Biosystems) or qPrimer depot (http://primerdepot.nci.nih.gov), and these sequences are available upon request.
# [3] = system: ER stress molecules in metastatic human uveal melanoma cells; test: Western blot of ER stress molecules; assay type: cell-based
# Procedure: Western blotting was performed as previously described 25,26. Briefly, cell lysates (30 μg) were separated using SDS-PAGE, transferred onto a PVDF membrane and subsequently exposed to the appropriate antibodies, anti-BCL2 (ms-123-PO) was from neomarker, anti-caspase 3 (#610323) was from BD, anti-BAX (#8429) was from sigma, anti-PARP (#9542), anti-BCL-XL (#2762), anti-caspase 9 (#9502) and anti-PUMA (#4976) were from Cell Signaling Technology Inc, anti-MCL1 (#sc-819), anti-NOXA (#56169), and anti-HSP90 (#sc-13119) were from Santa Cruz biotechnology. The proteins were visualized using the ECL system (Amersham). The western blots shown are representative of at least 3 independent experiments.
# [4] = system: Mel270 uveal melanoma cells; test: Mitochondrial membrane potential by TMRE staining; assay type: cell-based, human; conditions: Mel270; ABT-263 3 μM or 5 μM, 48 h
# Procedure: (§1) FIG. 1. ABT-263 induces apoptosis of uveal melanoma cells. Detection of the mitochondrial membrane potential using TMRE staining in Mel270 and OMM1 uveal melanoma cells exposed to ABT-263 3 μM or 5 μM for 48 h in the absence or presence of QVD-OPh 20 μM.
# [5] = system: OMM1 uveal melanoma cells; test: Mitochondrial membrane potential by TMRE staining; assay type: cell-based, human; conditions: OMM1; ABT-263 3 μM or 5 μM, 48 h
# Procedure: as §1
# [6] = system: metastatic cell lines; test: Colony formation assay; assay type: cell-based, human; conditions: metastatic versus primary cell lines; data not shown
# Procedure: Human uveal melanoma cells were seeded onto 6-well plates. The cells were subsequently placed in a 37° C., 5% C02 incubator. Colonies of cells were grown before being stained with 0.04% crystal violet/2% ethanol in PBS for 30 min. Photographs of the stained colonies were captured. The colony formation assay was performed in duplicate.
# [7] = system: OMM2,5 metastatic melanoma cells; test: Cell proliferation assay; assay type: cell-based, human
# Procedure: (§2) Human uveal melanoma cell lines and short-term cultures derived from different patients with metastatic malignant melanoma cells were grown in DMEM supplemented with 7% FBS at 37° C. in a humidified atmosphere containing 5% CO2. Lipofectamine™ RNAiMAX and opti-MEM medium were purchased from Invitrogen (San Diego, CA, USA). ABT-263 was obtained from Euromedex and qVD from Clinisciences.
# [8] = system: OMM1 cells; test: Cell proliferation assay; assay type: cell-based, human; conditions: OMM1 metastatic melanoma cells
# Procedure: as §2
# [9] = system: primary melanoma cells; test: Cell proliferation assay; assay type: cell-based, human; conditions: data not shown
# Procedure: as §2
# [10] = system: 92.1 cells; test: Cell death / apoptosis; assay type: cell-based, human; conditions: 92.1 cells; similar level as Mel270
# Procedure: (§3) Cells were seeded at a density of 100 000 cells/well, in 6-well plate and treated with ABT-263 for indicated time. Cells were harvested using accutase enzyme, washed twice with ice-cold phosphate-buffered saline, resuspended in a buffer (Hepes 250 mM, NaCl 150 mM, KCl 5 mM, MgCl2 2 mM, CaCl2) 2 mM) with DAPI (1 μg/ml) and Annexin V-Alexa Fluor 647 conjugate (1/100) and incubated for 15 minutes at room temperature (25° C.) in the dark. Samples were immediately analyzed by a flow cytometer (MACS QUANT) using a laser at 405 nm excitation with a bandpass filter at 425 nm and 475 nm for DAPI detection and a laser at 635 nm excitation with a bandpass filter at 650 nm and 665 nm for Alexa Fluor 647 dye. Annexin and DAPI mono- or double positive cells were counted as dead cells.
# [11] = Body weight and blood biochemical analysis of xenografted mice; assay type: in vivo
# Procedure: FIG. 3. ABT-263 reduces tumor growth in vivo. (A) Primary 92.1 uveal melanoma cells were subcutaneously engrafted into athymic nude mice. Once the tumours reached 100 mm3, mice were treated daily with ABT-263. The arrow indicates the start of the treatment. The growth tumor curves were determined by measuring the tumor volume using the equation V=(L Å˜W2)/2. […] (B) Sub-cutaneous tumor weight from control (Ct) and ABT-263-treated mice is shown. (C) Blood biochemical analysis of mice xenografted with OMM1 cells. Serum activity of alanine transaminase (ALT) and aspartate transaminase (AST) was measured in control and ABT-263 by spectrophotometric methods after the end of treatment. Data are presented as mean±SD (n=5 per group). Animal experiments were performed in accordance with French law and approved by a local institutional ethical committee. The animals were maintained in a temperature-controlled facility (22° C.) on a 12-h light/dark cycle and provided free access to food (standard laboratory chow diet from UAR, Epinay-S/Orge, France). Human Mel270 uvealmelanoma cells were subcutaneously inoculated into 8-week-old female, immune-deficient, athymic, nude FOXN1nu mice (Harlan Laboratory). When the tumors became palpable (0.1-0.2 cm3), the mice received an intraperitoneal injection of ABT-263 (50 mg/kg), dissolved in 10% DMSO 6 times per week. Control mice were injected with DMSO alone. The growth tumor curves were determined after measuring the tumor volume using the equation V=(L×W2)/2. At the end of the experiment, the mice were euthanized by cervical dislocation.
# [12] = system: metastatic uveal melanoma cells; test: Cell death by Annexin V/DAPI staining (flow cytometry); assay type: cell-based, human
# Procedure: as §3
# [13] = system: primary uveal melanoma cell lines; test: as above; assay type: cell-based, human
# Procedure: as §3
# [14] = OMM1-xenografted mice, after end of treatment
smiles,measurement,setting,value
"CC1(C)CCC(c2ccc(Cl)cc2)=C(CN2CCN(c3ccc(C(=O)NS(=O)(=O)c4ccc(N[C@H](CCN5CCOCC5)CSc5ccccc5)c(S(=O)(=O)C(F)(F)F)c4)cc3)CC2)C1 [ABT-263, 4-[4-[[2-(4-chlorophenyl)-5,5-dimethyl-1-cyclohexen-1-yl]methyl]-1-piperazinyl]-N-[[4-[[(1R)-3-(4-morpholinyl)-1-[(phenylthio)methyl]propyl]amino]-3-[(trifluoromethyl)sulfonyl]phenyl]sulfonyl]-benzamide]",tumor growth,[1],almost no effect
same,XBP1 splicing,[2],significantly higher
same,PERK and IRE1α phosphorylation,[3]; metastatic cell lines,did not detect
same,induction of ATF4 and CHOP,[3]; metastatic cells,hardly detectable
same,mitochondrial membrane potential ΔΨm,[4],dose-dependently reduced
same,mitochondrial membrane potential ΔΨm,[5],dose-dependently reduced
same,long-term growth inhibitory activity (colony formation),[6],more sensitive
same,proliferation,[7],strongly reduced proliferation
same,proliferation,[8],strongly reduced proliferation
same,"proliferation, response of primary melanoma cells",[9],highly resistant
same,ABT-263-induced apoptosis with PERK knockdown,[10],sensitized
same,serum alanine transaminase (ALT) versus vehicle,[11]; [14],no significant differences
same,serum aspartate transaminase (AST) versus vehicle,[11]; [14],no significant differences
same,hepatotoxicity,[11]; in vivo conditions,no hepatotoxicity
same,body weight versus vehicle,"[11]; xenografted mice, data not shown",no significant differences
same,cell death,[12],80%
same,cell death,[13],20-35%
